Consider ten compounds from US6365616B1, “Methimazole derivatives and tautomeric cyclic thiones to treat autoimmune diseases” (Sentron Medical, Inc., priority 1998, dated 2002).

In experiment [1] the test system is silencer complex with Fragment 140 (upstream silencer/enhancer) of the MHC Class I PD1 5′-flanking region. Nature of the experiment: Gel shift (EMSA) with upstream 140 class I probe, extracts from treated FRTL-5 cells. Type of experiment: cell-based, rat. The note with it: 5H cells treated 48 hours. Here is the method:
FRTL-5 rat thyroid cells (Kohn, L. D., et al., U.S. Pat. No. 4,609,622 (1986); Ambesi-Impiombato E S., U.S. Pat. No. 4,608,341 (1986)) are grown as described below. […] Their doubling time was approximately 36±6 hours; and, after 6 days in medium with no TSH (5H) and 5.0% serum, […] TSH elevated iodide uptake 8-10 fold and thymidine incorporation>10 fold. Cells were diploid, between their 5th and 25th passage in most experiments, and were routinely grown in Coon's modified F12 medium supplemented with 5 % calf serum, 1 mmol/L nonessential amino acids (GIBCO) and a mixture of 6 hormones (6H medium): TSH (1×10^−10 M), insulin (10 μg/ml), hydrocortisone 0.4 ng/ml, human transferrin (5 μg/ml), somatostatin ([…]) and glycyl-L-histidyl-L-lysine acetate (10 ng/ml) (Kohn, L. D. et al., U.S. Pat. No. 4,609,622 (1986); Ambesi-Impiombato, E. S., U.S. Pat. No. 4,608,341 (1986)). They were passaged every 7-10 days and provided fresh media every 2 or 3 days. In individual experiments, cells were grown to near confluency in 6H medium then, in some experiments, were shifted to medium with no TSH (5H), to medium with neither TSH and or insulin (4H), or to medium with no TSH, no insulin and no hydrocortisone (3H) plus either 5% or 0.2% serum for 4-7 days before use.
Cells were grown in 6H medium with 5 % calf serum for 6-7 days to 70-80% confluence, then shifted to 5H medium with 5 % calf serum for 5 days. TSH (1×10^−10 M), gamma-interferon (100 U/ml), MMI (5 mM), and different concentrations of MMI derivatives or tautomeric cyclic thiones (0.0001 to 10 mM) were added as appropriate for […]. Cells were then harvested and extracts were made by a modification of a method of Dignam, J., et al. Methods in Enzymology, 101:582-598 (1983). In brief, cells were harvested by scraping after being washed twice with cold phosphate-buffer saline (PBS). Subsequently they were pelleted, washed in cold PBS and then pelleted again. The pellet was resuspended in Dignam buffer C (20 mM Hepes buffer at pH 7.9, 1.5 mM MgCl2, 0.42 M NaCl, 25% glycerol, 0.5 mM dithiotreitol (DTT), 0.5 mM phenylmethylsulfonylfluoride (PMSF), 1 […] pepstatin). The final NaCl concentration was adjusted on the basis of cell pellet volume to 0.42 M and cells were lysed by repeated cycles of freezing and thawing. Extracts were then centrifuged at 10,000×g at 4° C. for 20 min. The supernatant was recovered, aliquoted and stored at −70° C.
Binding reactions were performed in a volume of 20 μl for 30 min at room temperature. The typical reaction mixture contained 1.5 fmol of ^32P DNA, 3 μg of cell extracts, 1 to 3 μg of poly (dI-dC) in 10 mM Tris-Cl (pH 7.9), 1 mM MgCl2, 1 mM DTT, 1 mM ethylenediamine tetra acetic acid (EDTA), and 5 % glycerol. After incubation, reaction mixtures were subjected to electrophoresis in 4% polyacrylamide gels for 90-120 min at 160 V in 0.5× TBE (Sambrook, J., et al., Molecular Cloning: A Laboratory Manual, 2nd ed. Cold Spring Harbor Press, NY, 2: 11.23-11.44 (1989)), then dried and autoradiographed. Probes were labeled with [α32P] deoxy CTP by Klenow enzyme (In Vitro labeling kit, Amersham) following the manufacturer's instructions, or by [γ^32P] ATP using T4 polynucleotide kinase. Labeled probes were then purified either through G-50 columns (5 prime→3 Prime) or on an 8% polyacrylamide gel.
The effect of the addition of 5 mM MMI to cells for 48 hours prior to extract preparation from cells maintained in SH medium is shown in lane 1 of FIG. 2. The effect of the addition of 1 mM concentration of representative MMI derivatives to cells maintained in 5H medium for 48 hours prior to extract preparation is shown in lanes 3 to 8 in FIG. 2. The structures and names of the representative numbered compounds are in Table 1. The MMI or its derivatives decrease the silencer complex. The decrease can be quantitated by densitometry of autoradiograms or phosphoimaging on a Bas 1500 imager (for example). […]
On the technique in general: In EMSA bound probe runs differently from free probe, usually more slowly.

For a further experiment, the system named is MHC class I RNA. The experiment in a line: Northern analysis of MHC class I RNA levels in FRTL-5 cells. The format is cell-based, rat. The note with it: for inhibition at 100 µM / inhibition at 1000 µM / inhibition at 5000 µM: Rattus norvegicus.
The mark [2] stands for this setting: FRTL-5, 100 μM, 100 U/ml γ-interferon, 6H medium (TSH), 40 hours, read-out: % inhibition of class I RNA expression (γ-interferon-treated).
Setting [3] is: FRTL-5, 100 μM, basal, 5H medium, 40 hours, read-out: % inhibition of class I RNA expression (basal).
Setting [4] is: FRTL-5, 1 mM, 100 U/ml γ-interferon, 6H medium (TSH), 40 hours, read-out: % inhibition of class I RNA expression (γ-interferon-treated).
[5] abbreviates: FRTL-5, 1 mM, basal, 5H medium, 40 hours, read-out: % inhibition of class I RNA expression (basal).
The mark [6] stands for this setting: 100 μM, 100 U/ml γ-interferon, 6H medium (TSH), 40 hours.
The mark [7] stands for this setting: 100 μM, basal, 5H medium, 40 hours.
[8] abbreviates: 1 mM, 100 U/ml γ-interferon, 6H medium (TSH), 40 hours.
The mark [9] stands for this setting: 1 mM, basal, 5H medium, 40 hours.
[10] abbreviates: 5 mM, 100 U/ml γ-interferon, 6H medium (TSH), 40 hours.
[11] abbreviates: FRTL-5, 5 mM, 100 U/ml γ-interferon, 6H medium (TSH), 40 hours, read-out: % inhibition of class I RNA expression (γ-interferon-treated).
The mark [12] stands for this setting: FRTL-5, 5 mM, basal, 5H medium, 40 hours, read-out: % inhibition of class I RNA expression (basal).

Like-named read-outs stand apart in the source and are kept apart here.

The inhibition is the percentage by which the read-out fell short of the control. On to `Cn1c(-c2ccccc2)cnc1S` [Compound 10, 5-Phenylmethimazole], for which the figures for the “% inhibition of control silencer complex formation” value in experiment [1] (10 μM), in experiment [1] (100 μM) and in experiment [1] (1 mM) were 25%, 60 ± 10% and 85 ± 15%, respectively. Besides, the inhibition at 100 µM worked out at 42 ± 14% in the experiment with MHC class I RNA (setting [2]) and 60 ± 8% in the experiment with MHC class I RNA (setting [3]). Also, the figures for the inhibition at 1000 µM in the experiment on MHC class I RNA (setting [4]) and with MHC class I RNA (setting [5]) were 60 ± 12% and 85 ± 16%, respectively.

With `Cn1ccn(C)c1=S` [Compound 8, N-Methylmethimazole], the “% inhibition of control silencer complex formation” value in experiment [1] (10 μM) worked out at 0%; in experiment [1] (100 μM), 18 ± 18%; in experiment [1] (1 mM) it was 70 ± 14%. The results for the “% inhibition of class I RNA expression (γ-interferon-treated)” value (“% inhibition … (γ-interferon-treated)” for short) in the experiment on MHC class I RNA (setting [6]), in the experiment on MHC class I RNA (setting [8]) and with MHC class I RNA (setting [10]) were 9 ± 7%, 49 ± 13% and 73 ± 12%, respectively. Moreover, the “% inhibition of class I RNA expression (basal)” value (“% inhibition … (basal)” for short) is 14 ± 12% in the experiment on MHC class I RNA (setting [7]) and 60 ± 6% in the experiment on MHC class I RNA (setting [9]).

Take `Sc1nc2ccccc2[nH]1` [Compound 4, 2-Mercaptobenzimidazole]: the “% inhibition of control silencer complex formation” value in experiment [1] (10 μM) is recorded as 0%; in experiment [1] (100 μM), 5%; in experiment [1] (1 mM) it was 75 ± 10%; in experiment [1] (5 mM), “Insol”. The “% inhibition … (γ-interferon-treated)” value with MHC class I RNA (setting [6]) is recorded as “None”. Further, in the experiment with MHC class I RNA (setting [7]), the “% inhibition … (basal)” value is given as “None”. Besides, the inhibition at 1000 µM was 34 ± 13% in the experiment on MHC class I RNA (FRTL-5, 40 h, read-out: % inhibition of class I RNA expression (basal)) and 37 ± 10% in the experiment on MHC class I RNA (FRTL-5, 40 h, read-out: % inhibition of class I RNA expression (γ-interferon-treated)).

Consider `CSc1nccn1C` [Compound 7, S-Methylmethimazole], for which the “% inhibition of control silencer complex formation” value turned out to be 0% in experiment [1] (10 μM), 10 ± 13% in experiment [1] (100 μM) and 50 ± 9% in experiment [1] (1 mM). In addition, the inhibition at 100 µM in the experiment on MHC class I RNA (setting [2]) stood at 14 ± 11%; with MHC class I RNA (setting [3]), 10 ± 8%. Also, the inhibition at 1000 µM in the experiment on MHC class I RNA (setting [4]) came out at 40 ± 15%; with MHC class I RNA (setting [5]) it was 46 ± 9%. Moreover, in the experiment on MHC class I RNA (setting [11]), the inhibition at 5000 µM is 69 ± 6%.

With `Cc1ncc([N+](=O)[O-])n1CCO` [Compound 2, 2-Methyl-5-nitro-1-imidazole ethanol], the “% inhibition of control silencer complex formation” value in experiment [1] (10 μM) came out at 0%; in experiment [1] (100 μM), 0%; in experiment [1] (1 mM), 45 ± 19%; in experiment [1] (5 mM), 86 ± 15%. In the experiment on MHC class I RNA (setting [6]), the “% inhibition … (γ-interferon-treated)” value is given as “None”. The “% inhibition … (basal)” value in the experiment with MHC class I RNA (setting [7]) is “None”. The inhibition at 1000 µM with MHC class I RNA (setting [4]) is 42 ± 5%; with MHC class I RNA (setting [5]) it was 49 ± 6%. Moreover, the inhibition at 5000 µM amounted to 68 ± 13% with MHC class I RNA (setting [11]) and 63 ± 14% in the experiment with MHC class I RNA (setting [12]).

On to `Cn1ccnc1S` [Compound 1, 1-Methylimidazole-2-thiol], for which the “% inhibition of control silencer complex formation” value in experiment [1] (10 μM) is 0%; in experiment [1] (100 μM), 0%; in experiment [1] (1 mM), 20 ± 15%; in experiment [1] (5 mM), 75 ± 12%. The “% inhibition … (γ-interferon-treated)” value with MHC class I RNA (setting [6]) is listed as “None”. Moreover, the “% inhibition … (basal)” value with MHC class I RNA (setting [7]) is reported as “None”. In addition, the figures for the inhibition at 1000 µM in the experiment with MHC class I RNA (setting [4]) and with MHC class I RNA (setting [5]) were 29 ± 7% and 25 ± 10%, respectively. The inhibition at 5000 µM in the experiment on MHC class I RNA (setting [11]) was found to be 52 ± 15%; with MHC class I RNA (setting [12]) it was 42 ± 8%.

Regarding `Cc1cnc(S)n1C` [Compound 9, 5-Methylmethimazole], the “% inhibition of control silencer complex formation” value stood at 0% in experiment [1] (10 μM), 0% in experiment [1] (100 μM), 15 ± 15% in experiment [1] (1 mM) and 30 ± 20% in experiment [1] (5 mM). For the same compound, in the experiment on MHC class I RNA (setting [6]), the “% inhibition … (γ-interferon-treated)” value is listed as “None”. In addition, the “% inhibition … (basal)” value in the experiment on MHC class I RNA (setting [7]) is listed as “None”. The inhibition at 1000 µM in the experiment with MHC class I RNA (setting [4]) was found to be 9 ± 5%; with MHC class I RNA (setting [5]), 15 ± 14%. The inhibition at 5000 µM was determined as 24 ± 6% with MHC class I RNA (setting [11]) and 30 ± 5% in the experiment on MHC class I RNA (setting [12]).

As for `Sc1ncc[nH]1` [Compound 3, 2-Mercaptoimidazole], the “% inhibition of control silencer complex formation” value in experiment [1] (10 μM), in experiment [1] (100 μM), in experiment [1] (1 mM) and in experiment [1] (5 mM) was 0% each time. Also, the “% inhibition … (γ-interferon-treated)” value in the experiment on MHC class I RNA (setting [8]) and in the experiment on MHC class I RNA (setting [10]) was “None” each time. Also, the “% inhibition … (basal)” value in the experiment with MHC class I RNA (setting [9]) is “None”; with MHC class I RNA (5 mM, basal, 5H medium, 40 hours), “None”.

As to `O=[N+]([O-])c1ccc2[nH]c(S)nc2c1` [Compound 5, 2-Mercapto-5-nitrobenzimidazole], the “% inhibition of control silencer complex formation” value in experiment [1] (10 μM) is reported as 0%; in experiment [1] (100 μM), 0%; in experiment [1] (1 mM) it was 0%; in experiment [1] (5 mM) it was “Insol”. Further, the “% inhibition … (γ-interferon-treated)” value in the experiment with MHC class I RNA (setting [6]) is “None”. The “% inhibition … (basal)” value with MHC class I RNA (setting [7]) is given as “None”. For the same compound, the inhibition at 1000 µM with MHC class I RNA (setting [4]) is 19 ± 7%; in the experiment on MHC class I RNA (setting [5]) it was 32 ± 11%.

For the compound `Cc1ccc2[nH]c(S)nc2c1` [Compound 6, 2-Mercapto-5-methylbenzimidazole], the “% inhibition of control silencer complex formation” value in experiment [1] (10 μM) is listed as 0%; in experiment [1] (100 μM), 0%; in experiment [1] (1 mM), 20 ± 18%; in experiment [1] (5 mM), “Insol”. The “% inhibition … (γ-interferon-treated)” value in the experiment on MHC class I RNA (setting [6]) is “None”. The “% inhibition … (basal)” value with MHC class I RNA (setting [7]) is “None”. Also, the inhibition at 1000 µM was 22 ± 16% with MHC class I RNA (setting [4]) and 23 ± 15% with MHC class I RNA (setting [5]). In addition, in the experiment on MHC class I RNA (setting [11]), the inhibition at 5000 µM was found to be 23 ± 11%.
